Reference: US20130156768A1, “COMBINATION OF ANTI-CTLA4 ANTIBODY WITH BRAF INHIBITORS FOR THE SYNERGISTIC TREATMENT OF PROLIFERATIVE DISEASES” (Bristol-Myers Squibb Company, priority 2010, published 2013)

Key:
[1] = tested on: CT26 colon carcinoma; assay: Antitumor activity in the murine CT26 colon carcinoma model; type: in vivo; conditions: for % TGI: CT26
Text: Thus, there was an interest in determining whether a potentiation of an antitumor immune response could be achieved by the combination of a CTLA-4 blocking mAb and a BRAF inhibitor in a murine CT26 colon carcinoma model.
Pharmacology studies are currently being conducted in support of the proposed clinical trial evaluating the antitumor activity of the BRAF inhibitor Methyl {5-[2-chloro-2-methylphenyl)-1-hydroxy-3-oxo-2,3-dihydro-1H-isoindol-1-yl]-1H-benzimidazol-2-yl}carbamate, and ipilimumab in subjects with advanced melanoma. Efficacy studies were conducted in the CT26 colon carcinoma, a tumor model sensitive to CTLA-4 blockade.
Two different combination schedules were evaluated, concurrent and sequential. In the concurrent setting, Methyl {5-[2-chloro-2-methylphenyl)-1-hydroxy-3-oxo-2,3-dihydro-1H-isoindol-1-yl]-1H-benzimidazol-2-yl}carbamate (100 mg/kg, p.o.) was administered every other day for […] while CTLA-4 mAb (20 mg/kg, i.p.) was dosed every 4 days for 3 doses starting on day 5. In the sequential setting, Methyl {5-[2-chloro-2-methylphenyl)-1-hydroxy-3-oxo-2,3-dihydro-1H-isoindol-1-yl]-1H-benzimidazol-2-yl}carbamate (100 mg/kg, p.o.) was dosed every other day for 4 doses from day 4-10 while CTLA-4 mAb (20 mg/kg, i.p.) was dosed every 4 days for 3 doses starting on day 11. Control groups consisted of each agent dosed in combination with vehicle control following the same schedule.

[2] = tested on: OVA-specific T cells; assay: Second study in the OVA adoptive transfer model (OVA-specific T cell responses); type: in vivo, murine; conditions: agent added to CTLA-4 mAb, FIG. 5
Text: In addition, combination of both agents synergistically expanded antigen-specific T cells when dosed concurrently. The effect of this promising combination was further investigated in a) a tumor model sensitive to CTLA-4 blockade (SA1N fibrosarcoma); b) in the antigen (OVA)-specific T cell model to assess the effect of Methyl {5-[2-chloro-2-methylphenyl)-1-hydroxy-3-oxo-2,3-dihydro-1H-isoindol-1-yl]-1H-benzimidazol-2-yl}carbamate at different dose levels and compared its activity to another BRAF inhibitor (EXT-000153, Genentech) and EVRI.
Previously, the unexpected expansion of antigen-specific T cells with the use of Methyl {5-[2-chloro-2-methylphenyl)-1-hydroxy-3-oxo-2,3-dihydro-1H-isoindol-1-yl]-1H-benzimidazol-2-yl}carbamate+CTLA-4 mAb in an OVA adoptive transfer model was observed (see Example 2). Thus, a second study was designed to confirm these initial observations to determine the dose effect of Methyl {5-[2-chloro-2-methylphenyl)-1-hydroxy-3-oxo-2,3-dihydro-1H-isoindol-1-yl]-1H-benzimidazol-2-yl}carbamate and to determine whether this phenomenon could also be elicited by other RAF inhibitors. In addition, EVRI, an EGFR/VEGFR inhibitor which inhibits the MAPK pathway was also included in this experiment.

[3] = tested on: SA1N fibrosarcoma; assay: Antitumor activity in the SA1N fibrosarcoma tumor model; type: in vivo
Experimental: In addition, combination of both agents synergistically expanded antigen-specific T cells when dosed concurrently.
In the SA1N tumor model, the effect of the combination of both agents was investigated under either a concurrent dosing regimen or a sequential schedule.
Sa1N tumors were implanted s.c. and treatments were administered as follows: Methyl {5-[2-chloro-2-methylphenyl)-1-hydroxy-3-oxo-2,3-dihydro-1H-isoindol-1-yl]-1H-benzimidazol-2-yl}carbamate, […], 20 mg/kg, Q4D×3, starting on day 17.

[4] = tested on: OVA-specific T cells; assay: Model of antigen-induced T-cell proliferation (OVA adoptive transfer, OVA-specific tetramer staining); type: in vivo, C57BL6 mice; conditions: CTLA-4 mAb 20 mg/kg days 1, 3; BRAF inhibitor 100 mg/kg days 1, 3, 5; erlotinib 100 mg/kg p.o. daily days 1-5; FIG. 3
Experimental: The effect of the combination of a BRAF inhibitor and CTLA-4 mAb was evaluated in a model of antigen-induced T-cell proliferation. In this model, T cells specific for the antigen ovalbumin (OVA) were adoptively transferred into naive C57BL6 mice on study day −1. On Study Day 0, animals were challenged with 250 ug of an OVA peptide (i.v.). Animals were reandomized and divided into groups of 5. Treatments were administered as follows: CTLA-4 mAb—20 mg/kg—study days 1 and 3; Methyl {5-[2-chloro-2-methylphenyl)-1-hydroxy-3-oxo-2,3-dihydro-1H-isoindol-1-yl]-1H-benzimidazol-2-yl}carbamate—100 mg/kg—study days 1, 3, and 5. In addition, another study group received erlotinib (TARCEVA®) daily at 100 mg/kg, p.o. from study days 1 through 5. Combination groups consisted of Compound Ia and CTLA-4 mAb or erlotinib+CTLA-4 mAb following the same schedules. Control animals received the OVA challenge and no further treatment. Expansion of OVA-specific T cells was measured prior to OVA challenge and on days 2, 5, 7 and 16 by OVA-specific tetramer staining.

| SMILES | % TGI ([1]; concurrent schedule, Day 26, BRAF inhibitor 100 mg/kg p.o. every other day x7 from day 4, CTLA-4 mAb 20 mg/kg i.p. every 4 days x3 from day 5) | % TGI ([1]; sequential schedule, day 26, BRAF inhibitor 100 mg/kg p.o. every other day x4 day 4-10, CTLA-4 mAb 20 mg/kg i.p. every 4 days x3 from day 11) | complete regressions (CR) ([1]; CT-26 colon carcinoma model) | effect on the OVA-specific T cell expansion elicited by CTLA-4 mAb [2] | toxicity of extended dosing ([3]; SA1N tumor model, 7 doses used in the concurrent regimen) | complete regressions ([3]; SA1N, sequential treatment: BRAF inhibitor 100 mg/kg Q2Dx4 from day 10, CTLA-4 mAb 20 mg/kg Q4Dx3 from day 17) | OVA tetramer response (expansion of OVA-specific T cells) [4] |
| --- | --- | --- | --- | --- | --- | --- | --- |
| COC(=O)Nc1nc2cc(C3(O)c4ccccc4C(=O)N3c3cc(Cl)ccc3C)ccc2[nH]1 (centres unmarked) | 70% | 77% | 1 CR | enhanced CTLA-4 blockade OVA-specific T cell expansion in a dose-related manner | toxic | no regression | effect similar to CTLA-4 mAb |
| C#Cc1cccc(Nc2ncnc3cc(OCCOC)c(OCCOC)cc23)c1 [erlotinib, reference compound] |  |  |  |  |  |  | decreased the response |
